Measured values taken from patent publication US10414759B2, “Phenylthiazoles and uses thereof” (Purdue Research Foundation, priority 2017, dated 2019).
Converted amounts (≈) assume the structure as drawn.

Legend:
[1] = test system: NRS384 (MRSA USA300); test: MIC/MBC clinical isolate panel (Table 3); type: cell-based, S. aureus; conditions: Staphylococcus aureus, Table 3, NRS384 (MRSA USA300)
Method: (§1) Bacteria were cultured in cation-adjusted Mueller Hinton broth in a 96-well plate. Compounds, using triplicate samples, were added to the plate and serially diluted. […] Plates were visually inspected and the MIC was categorized as the concentration at which no visible growth of bacteria was observed. The average of triplicate MIC determinations is reported.
(§2) A bacterial solution equivalent to 0.5 McFarland standard was prepared and diluted in cation-adjusted Mueller-Hinton broth (CAMHB) to achieve a bacterial concentration of about 5×10^5 CFU/mL and seeded in 96-well plates. Enterococcus faecium was diluted in brain heart infusion broth. Enterococcus faecalis, Streptococcus pneumonia and Listeria monocytogenes were diluted in tryptone soya broth (TSB).

[2] = test system: NRS72 (MSSA); test: MIC/MBC clinical isolate panel (Table 3); type: cell-based, S. aureus; conditions: Staphylococcus aureus, Table 3, NRS72 (MSSA)
Method: as §1, §2

[3] = test system: NRS383 (MRSA USA200); test: MIC/MBC clinical isolate panel (Table 3); type: cell-based, S. aureus; conditions: Staphylococcus aureus, Table 3, NRS383 (MRSA USA200)
Method: as §1, §2

[4] = test system: NRS382 (MRSA USA100); test: MIC/MBC clinical isolate panel (Table 3); type: cell-based, S. aureus; conditions: Staphylococcus aureus, Table 3, NRS382 (MRSA USA100)
Method: as §1, §2

[5] = test system: NRS119 (MRSA); test: MIC/MBC clinical isolate panel (Table 3); type: cell-based, S. aureus; conditions: Staphylococcus aureus, Table 3, NRS119 (MRSA)
Method: as §1, §2

[6] = test system: NRS123 (MRSA USA400); test: MIC/MBC clinical isolate panel (Table 3); type: cell-based, S. aureus; conditions: Staphylococcus aureus, Table 3, NRS123 (MRSA USA400)
Method: as §1, §2

[7] = test system: MRSA (2658 RCMB); test: MIC against MRSA (2658 RCMB), broth dilution; type: cell-based, Staphylococcus aureus
In short: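 Broth dilution in cation-adjusted Mueller-Hinton broth with an inoculum of about 5×10^5 CFU/mL (from a 0.5 McFarland suspension), using triplicate serial dilutions. MIC was the lowest concentration with no visible growth by visual inspection, reported as the mean of triplicates.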

MIC ([1]; read-out: MIC): 2 µg/mL (≈ 5.89 µM)
MIC ([2]; read-out: MIC): 2 µg/mL (≈ 5.89 µM)
MIC ([3]; read-out: MIC): 2 µg/mL (≈ 5.89 µM)
MIC ([4]; read-out: MIC): 2 µg/mL (≈ 5.89 µM)
MIC ([5]; read-out: MIC): 2 µg/mL (≈ 5.89 µM)
MIC ([6]; read-out: MIC): 2 µg/mL (≈ 5.89 µM)
improvement in MIC value compared with lead compound 1 ([7]; MRSA (2658 RCMB)): 12 fold
MIC ([7]; Staphylococcus aureus, Table 1, MRSA (2658 RCMB), read-out: MIC ± SD): 0.4 µg/mL (≈ 1.18 µM)
MIC ± SD ([7]; Table 1, MRSA (2658 RCMB)): 0.40 ± 0.0 µg/mL (≈ 1.18 µM)
SMILES: CCCCc1ccc(-c2nc(C)c(-c3ccnc(NN)n3)s2)cc1 [Compound 17, 2-(4-Butylphenyl)-5-(2-hydrazinopyrimidin-4-yl)-4-methylthiazole]
MBC [1]: 2 µg/mL (≈ 5.89 µM)
MBC [2]: 8 µg/mL (≈ 23.6 µM)
MBC [3]: 2 µg/mL (≈ 5.89 µM)
MBC [4]: 4 µg/mL (≈ 11.8 µM)
MBC [5]: 2 µg/mL (≈ 5.89 µM)
MBC [6]: 2 µg/mL (≈ 5.89 µM)
antibacterial (anti-MRSA) activity, in words ([7]; Table 1): more potent than vancomycin
